Key:
Cathepsin S = Cathepsin S (Homo sapiens, UniProt P25774); assay: Cathepsin S inhibition assay (fluorogenic peptide substrate); type: biochemical; settings: Table II, compounds of Formula I; read-out: Ki Cat. S
How it was run: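 Ki values come from nonlinear fitting of inhibited hydrolysis rates, taking free and total inhibitor concentrations as equal. Rates measured as rising fluorescence at 380/450 nm after reaction start with 50 μM final acetyl-HPVK-aminocarbamoylcoumarin.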

Cathepsin K = molecular target: T1, Cathepsin K (Homo sapiens, UniProt P43235); assay: Cathepsin K inhibition assay (fluorogenic peptide substrate); selectivity ratio vs cathepsin S; type: biochemical; settings: ratio of cathepsin K inhibition constant to cathepsin S inhibition constant; Table II
T1 sequence (P43235 115-329): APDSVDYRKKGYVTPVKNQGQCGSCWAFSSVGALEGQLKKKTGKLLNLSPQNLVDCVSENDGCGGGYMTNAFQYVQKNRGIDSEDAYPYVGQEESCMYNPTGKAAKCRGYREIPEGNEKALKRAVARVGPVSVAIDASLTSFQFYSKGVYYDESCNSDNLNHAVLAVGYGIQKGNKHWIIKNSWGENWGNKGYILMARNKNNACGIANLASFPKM
How it was run: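 Inhibition constants for competitive inhibitors come from apparent values fitted to enzyme progress curves. Substrate, acetyl-Lys-His-Pro-Lys-aminocarbamoylcoumarin (40 μM final), starts the reaction; fluorescence rise read at 380 nm excitation, 450 nm emission. Selectivity ratio: other cathepsin constant over cathepsin S constant.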

Chain of Cathepsin S (P25774 115-331, species assumed): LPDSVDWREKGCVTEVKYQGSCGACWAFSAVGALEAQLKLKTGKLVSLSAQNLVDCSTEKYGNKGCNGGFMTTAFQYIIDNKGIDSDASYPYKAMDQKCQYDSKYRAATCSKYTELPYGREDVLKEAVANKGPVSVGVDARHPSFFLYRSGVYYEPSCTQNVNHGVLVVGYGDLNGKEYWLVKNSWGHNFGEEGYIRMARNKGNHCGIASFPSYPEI

Ki (Cathepsin S) [nM]	Selectivity for Cat. S over Cat. K (Cathepsin K)	SMILES
< 100	+++ (+++, >1000)	COc1ccc(NCCNC(=O)[C@H](Cc2ccc(-c3cccnc3)cc2)NC(=O)c2cccc(C)c2)cc1 [Compound 274, (S)-N-[1-[2-(4-Methoxy-phenylamino)-ethylcarbamoyl]-2-(4-pyridin-3-yl-phenyl)-ethyl]-3-methyl-benzamide]
< 100	+++ (+++, >1000)	COc1ccc(NCCNC(=O)[C@H](Cc2ccc(-c3ccsc3)cc2)NC(=O)c2cccc(C)c2)cc1 [Compound 275, (S)-N-[1-[2-(4-Methoxy-phenylamino)-ethylcarbamoyl]-2-(4-thiophen-3-yl-phenyl)-ethyl]-3-methyl-benzamide]
< 100	+++ (+++, >1000)	COc1ccc(NCCNC(=O)[C@H](Cc2ccc(-c3ccc(C#N)cc3)cc2)NC(=O)c2cccc(C)c2)cc1 [Compound 276, (S)-N-{2-(4′-Cyano-biphenyl-4-yl)-1-[2-(4-methoxy-phenylamino)-ethylcarbamoyl]-ethyl}-3-methyl-benzamide]
< 100	++ (++, >100)	COc1ccc(NCCNC(=O)[C@H](Cc2ccc(-c3ccncc3)cc2)NC(=O)c2cccc(C)c2)cc1 [Compound 277, (S)-N-[1-[2-(4-Methoxy-phenylamino)-ethylcarbamoyl]-2-(4-pyridin-4-yl-phenyl)-ethyl]-3-methyl-benzamide]
< 1000	++ (++, >100)	COc1ccc(NCCNC(=O)[C@H](Cc2ccc(-c3ccc(Cl)cc3)cc2)NC(=O)c2cccc(C)c2)cc1 [Compound 278, (S)-N-{2-(4′-Chloro-biphenyl-4-yl)-1-[2-(4-methoxy-phenylamino)-ethylcarbamoyl]-ethyl}-3-methyl-benzamide]
< 1000	++ (++, >100)	COc1ccc(NCCNC(=O)[C@H](Cc2ccc(-c3cccc(OC)c3OC)cc2)NC(=O)c2cccc(C)c2)cc1 [Compound 279, (S)-N-{2-(2′,3′-Dimethoxy-biphenyl-4-yl)-1-[2-(4-methoxy-phenylamino)-ethylcarbamoyl]-ethyl}-3-methyl-benzamide]
< 1000	++ (++, >100)	COc1ccc(NCCNC(=O)[C@H](Cc2ccc(-c3cccc(N)c3)cc2)NC(=O)c2cccc(C)c2)cc1 [Compound 280, (S)-N-{2-(3′-Amino-biphenyl-4-yl)-1-[2-(4-methoxy-phenylamino)-ethylcarbamoyl]-ethyl}-3-methyl-benzamide]
< 1000	++ (++, >100)	COc1ccc(NCCNC(=O)[C@H](Cc2ccc(-c3ccc(OC)c(OC)c3)cc2)NC(=O)c2cccc(C)c2)cc1 [Compound 281, (S)-N-{2-(3′,4′-Dimethoxy-biphenyl-4-yl)-1-[2-(4-methoxy-phenylamino)-ethylcarbamoyl]-ethyl}-3-methyl-benzamide]
< 1000	++ (++, >100)	COc1ccc(NCCNC(=O)[C@H](Cc2ccc(-c3ccc(CO)cc3)cc2)NC(=O)c2cccc(C)c2)cc1 [Compound 282, (S)-N-{2-(4′-Hydroxymethyl-biphenyl-4-yl)-1-[2-(4-methoxy-phenylamino)-ethylcarbamoyl]-ethyl}-3-methyl-benzamide]
< 1000	++ (++, >100)	COc1ccc(NCCNC(=O)[C@H](Cc2ccc(-c3cc(F)ccc3OC)cc2)NC(=O)c2cccc(C)c2)cc1 [Compound 283, (S)-N-{2-(5′-Fluoro-2′-methoxy-biphenyl-4-yl)-1-[2-(4-methoxy-phenylamino)-ethylcarbamoyl]-ethyl}-3-methyl-benzamide]
< 1000	++ (++, >100)	COc1ccc(NCCNC(=O)[C@H](Cc2ccc(-c3cccc(CO)c3)cc2)NC(=O)c2cccc(C)c2)cc1 [Compound 284, (S)-N-{2-(3′-Hydroxymethyl-biphenyl-4-yl)-1-[2-(4-methoxy-phenylamino)-ethylcarbamoyl]-ethyl}-3-methyl-benzamide]
< 1000	++ (++, >100)	COc1ccc(NCCNC(=O)[C@H](Cc2ccc(-c3cc(OC)ccc3OC)cc2)NC(=O)c2cccc(C)c2)cc1 [Compound 285, (S)-N-{2-(2′,5′-Dimethoxy-biphenyl-4-yl)-1-[2-(4-methoxy-phenylamino)-ethylcarbamoyl]-ethyl}-3-methyl-benzamide]
< 10000	+ (+, >10)	COc1ccc(NCCNC(=O)[C@H](Cc2ccc(-c3cc(Cl)ccc3Cl)cc2)NC(=O)c2cccc(C)c2)cc1 [Compound 286, (S)-N-{2-(2′,5′-Dichloro-biphenyl-4-yl)-1-[2-(4-methoxy-phenylamino)-ethylcarbamoyl]-ethyl}-3-methyl-benzamide]
< 1000	++ (++, >100)	COc1ccc(NCCNC(=O)[C@H](Cc2ccc(-c3ccc(N(C)C)cc3)cc2)NC(=O)c2cccc(C)c2)cc1 [Compound 287, (S)-N-{2-(4′-Dimethylamino-biphenyl-4-yl)-1-[2-(4-methoxy-phenylamino)-ethylcarbamoyl]-ethyl}-3-methyl-benzamide]
< 1000	++ (++, >100)	COc1ccc(NCCNC(=O)[C@H](Cc2ccc(-c3ccccc3C(C)=O)cc2)NC(=O)c2cccc(C)c2)cc1 [Compound 288, (S)-N-{2-(2′-Acetyl-biphenyl-4-yl)-1-[2-(4-methoxy-phenylamino)-ethylcarbamoyl]-ethyl}-3-methyl-benzamide]
< 1000	++ (++, >100)	COc1ccc(NCCNC(=O)[C@H](Cc2ccc(-c3ccc(O)cc3)cc2)NC(=O)c2cccc(C)c2)cc1 [Compound 289, (S)-N-{2-(4′-Hydroxy-biphenyl-4-yl)-1-[2-(4-methoxy-phenylamino)-ethylcarbamoyl]-ethyl}-3-methyl-benzamide]
< 100	+++ (+++, >1000)	COc1ccc(NCCNC(=O)[C@H](Cc2ccc(-c3cccc(C(C)=O)c3)cc2)NC(=O)c2cccc(C)c2)cc1 [Compound 290, (S)-N-{2-(3′-Acetyl-biphenyl-4-yl)-1-[2-(4-methoxy-phenylamino)-ethylcarbamoyl]-ethyl}-3-methyl-benzamide]
< 1000	++ (++, >100)	COc1ccc(NCCNC(=O)[C@H](Cc2ccc(-c3cnc(OC)nc3OC)cc2)NC(=O)c2cccc(C)c2)cc1 [Compound 291, (S)-N-{2-[4-(2,4-Dimethoxy-pyrimidin-5-yl)-phenyl]-1-[2-(4-methoxy-phenylamino)-ethylcarbamoyl]-ethyl}-3-methyl-benzamide]
< 100	+++ (+++, >1000)	COc1ccc(NCCNC(=O)[C@H](Cc2ccc(-c3ccc(OC)nc3)cc2)NC(=O)c2cccc(C)c2)cc1 [Compound 292, (S)-N-{1-[2-(4-Methoxy-phenylamino)-ethylcarbamoyl]-2-[4-(6-methoxy-pyridin-3-yl)-phenyl]-ethyl}-3-methyl-benzamide]
< 100	++ (++, >100)	CS(=O)(=O)c1ccc(C(=O)N[C@@H](CC2CCCCC2)C(=O)NCCNc2ccc(F)cc2)s1 [Compound 293, 5-Methanesulfonyl-thiophene-2-carboxylic acid (S)-{2-cyclohexyl-1-[2-(4-fluoro-phenylamino)-ethylcarbamoyl]-ethyl}-amide]
< 100	++ (++, >100)	C[C@H](C(=O)N[C@@H](CC1CCCCC1)C(=O)NCCNc1ccc(F)cc1)c1ccccc1 [Compound 294, N-(S)-{2-cyclohexyl-1-[2-(4-fluoro-phenylamino)-ethylcarbamoyl]-ethyl}-2-(S)-phenyl-propionamide]
< 1000	++ (++, >100)	O=C(N[C@@H](CC1CCCCC1)C(=O)NCCNc1ccc(F)cc1)c1ccnnc1 [Compound 295, Pyridazine-4-carboxylic acid (S)-{2-cyclohexyl-1-[2-(4-fluoro-phenylamino)-ethylcarbamoyl]-ethyl}-amide]
< 100	+++ (+++, >1000)	CS(=O)(=O)c1cccc(C(=O)N[C@@H](CC2CCCCC2)C(=O)NCCNc2ccc(F)cc2)c1 [Compound 296, N-(S)-{2-cyclohexyl-1-[2-(4-fluoro-phenylamino)-ethylcarbamoyl]-ethyl}-3-methanesulfonyl-benzamide]
< 1000	++ (++, >100)	O=C(Cc1nnn[nH]1)N[C@@H](CC1CCCCC1)C(=O)NCCNc1ccc(F)cc1 [Compound 297, 3-Cyclohexyl-N-[2-(4-fluoro-phenylamino)-ethyl]-2-(S)-(2-1H-tetrazol-5-yl-acetylamino)-propionamide]
< 100	++ (++, >100)	O=C(N[C@@H](CC1CCCCC1)C(=O)NCCNc1ccc(F)cc1)C1CC1 [Compound 298, Cyclopropanecarboxylic acid (S)-{2-cyclohexyl-1-[2-(4-fluoro-phenylamino)-ethylcarbamoyl]-ethyl}-amide]
< 100	+ (+, >10)	CS(=O)(=O)Nc1ccc(C(=O)N[C@@H](CC2CCCCC2)C(=O)NCCNc2ccc(F)cc2)cc1 [Compound 299, N-(S)-{2-cyclohexyl-1-[2-(4-fluoro-phenylamino)-ethylcarbamoyl]-ethyl}-4-methanesulfonylamino-benzamide]
